Experimental data published in US8470765B2, “Polypeptides and antibacterial or antiseptic use of same” (AnGes MG, Inc., priority 2009, dated 2013).
Read-outs that look alike come from different tables or passages of the source. No end group written: not given here.

How the values were obtained:
[1] = test system: Bacillus subtilis NBRC3134; conditions: NBRC3134
[2] = test system: Salmonella enteritidis IID 604; conditions: IID 604
[3] = test system: Pseudomonas aeruginosa ATCC 27853; experiment: microbe, parasite or virus in culture; type: cell-based
Procedure, shortened: (§1)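 Broth microdilution in Mueller-Hinton broth with about 10^5 CFU/mL final inoculum, prepared from log-phase cultures adjusted to McFarland 0.5. Peptides were diluted in MHB from 128 μg/mL and incubated with cells at 37° C for 16 to 24 hours. MIC was the lowest concentration with no visible growth.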

[4] = test system: Enterobacter aerogenes JCM 1235; experiment: microbe, parasite or virus in culture; type: cell-based; conditions: JCM 1235
Procedure, shortened: as §1

[5] = test system: Staphylococcus aureus ATCC29213; experiment: microbe, parasite or virus in culture; type: cell-based
Procedure, shortened: as §1

[6] = test system: Cryptococcus neoformans IFM 46660
[7] = test system: Rhizopus oryzae NBRC 31005; conditions: NBRC 31005
[8] = test system: Enterobacter cloacae JCM 1232; type: cell-based; conditions: Table 4; two tests, first/second value where not identical
Protocol: Bacteria (Escherichia coli ATCC 25922, Pseudomonas aeruginosa ATCC 27853, Staphylococcus aureus ATCC29213, Klebsiella pneumoniae JCM 1662, Enterobacter cloacae JCM 1232, Enterobacter aerogenes JCM 1235 and Staphylococcus epidermidis JCM 2414) were inoculated to Mueller-Hinton broth: MHB or LB medium, and cultured at a temperature and period suited for each strain. From the thus obtained colonies, each strain was inoculated to a fresh liquid medium and cultured for 16 to 20 hours. Then an aliquot having a volume (10 to 50 appropriate to each strain was inoculated to a fresh liquid medium and cultured for 4 to 6 hours, followed by the measurement of the absorbance at 600 nm. After comparing the turbidity with McFarland #0.5, the resultant was diluted with a medium. Each strain was added to about 10^5 CFU/mL (final concentration). Each of the peptide solutions to be tested was diluted with MHB to obtain a solution of 128 μg/mL. […] As controls, tobramycin (TOB: aminoglucoside antibiotic), oxacillin (OX:β-lactam antibiotic), meropenem (MEPM: carbapenem antibiotic) and ciprofloxacin (new quinolone antibiotic) were used. […] To a 96-well microtiter plate, 0.1 mL of the inoculation solution and 0.1 mL of the peptide- or positive control-containing medium having the respective concentration were added, and cultured at 37° C. for 16 to 24 hours (or a time period suited for the growth of the respective strain). The well not containing the sample was used as a negative control. After the culturing, the growth was visually observed, and the minimum concentration at which the growth was inhibited was defined as the minimum growth inhibition concentration (MIC). The medium used in this test for bacteria was Mueller-Hinton broth. Independent experiments were carried out twice or more for each strain.

[9] = test system: Salmonella typhimurium JCM1652; conditions: JCM1652
[10] = test system: Pseudomonas aeruginosa ATCC 27853; experiment: ATP Assay (viability at 3 hours), Table 6; type: cell-based; conditions: 3 h, 5 μg/mL
Procedure, shortened: (§2)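 Log-phase bacteria at about 10^5 CFU/mL final in Mueller-Hinton broth were exposed 3 h at 37 °C to peptide (solution prepared at 10 μg/mL before 1:1 mixing with inoculum). ATP (BacTiter-Glo luminescence) relative to untreated wells defined viability; two independent experiments.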

[11] = test system: Escherichia coli ATCC 25922; experiment: ATP Assay (viability at 3 hours), Table 6; type: cell-based; conditions: 3 h, 5 μg/mL
Procedure, shortened: as §2

[12] = test system: Staphylococcus aureus ATCC29213; experiment: ATP Assay (viability at 3 hours), Table 6; type: cell-based; conditions: 3 h, 5 μg/mL
Procedure, shortened: as §2

[13] = test system: Alternaria alternata JCM5800; conditions: JCM5800
[14] = test system: Aspergillus niger NBRC 9455; conditions: Table 4; two tests, first/second value where not identical
[15] = test system: Streptococcus pyogenes JCM5674
Fusarium solani JCM11383 = conditions: JCM11383
[16] = test system: Trichophyton mentagrophytes NBRC6124; conditions: NBRC6124
[17] = test system: Fusobacterium nucleatum JCM 11025; conditions: JCM 11025
[18] = test system: Micrococcus luteus NBRC13867
[19] = test system: Bacteroides fragilis JCM 11019; conditions: JCM 11019
Candida krusei NBRC1395 = conditions: NBRC1395
[20] = Table 4, two tests, first/second value where not identical

Substance	MIC Bacillus subtilis [1]	MIC Salmonella Enteritidis [2]	MIC Enterobacter aerogenes [4]	MIC Rhizopus oryzae [7]	MIC Enterobacter cloacae [8]	MIC Salmonella Typhimurium [9]	Pseudomonas aeruginosa ATP (viability, relative value to negative control) [10]	Escherichia coli ATP (viability, relative value to negative control) [11]	Staphylococcus aureus ATP (viability, relative value to negative control) [12]	MIC Alternaria alternata [13]	MIC Aspergillus niger [14]	MIC Streptococcus pyogenes [15]	MIC Fusarium solani (Fusarium solani JCM11383)	MIC Trichophyton mentagrophytes [16]	MIC Fusobacterium nucleatum [17]	MIC Micrococcus luteus [18]	MIC Bacteroides fragilis [19]	MIC Candida krusei (Candida krusei NBRC1395)	other results
RLKRMRKRLKRKLRLW-NH2 [SRP-17]	8 µg/mL	8 µg/mL	128 µg/mL	8 µg/mL	128< mg/mL	16 µg/mL	1.0	0.4	0.3	32 µg/mL	8/16	128 µg/mL	8 µg/mL	16 µg/mL	> 128 µg/mL	1 µg/mL	> 128 µg/mL	32 µg/mL	MIC Pseudomonas aeruginosa [3, 20]: 32/64; MIC Staphylococcus aureus [5, 20]: 16/32; MIC Cryptococcus neoformans ([6]; IFM 46660): 2 µg/mL
RLKRMRKRLKRKLRLWHRKRYK-NH2 [SRP-8]	8 µg/mL	64 µg/mL	64 µg/mL	8 µg/mL	128< mg/mL	64 µg/mL	0.9	1.7	0.4	32 µg/mL	16/32	64 µg/mL	4 µg/mL	32 µg/mL	> 128 µg/mL	2 µg/mL	> 128 µg/mL	32 µg/mL	MIC Pseudomonas aeruginosa ([3]; ATCC 27853): 16 µg/mL; MIC Staphylococcus aureus ([5]; ATCC29213): 16 µg/mL; MIC Cryptococcus neoformans [6, 20]: 1/2
